Assay [1] addresses T1, xCT (SLC7A11), system xc− (Mus musculus, UniProt Q9WTR6).
T1 construct: coding region of murine xCT, stably overexpressed in MEF; with 4F2 heavy chain (SLC3A2)
T1 sequence (Q9WTR6 1-502): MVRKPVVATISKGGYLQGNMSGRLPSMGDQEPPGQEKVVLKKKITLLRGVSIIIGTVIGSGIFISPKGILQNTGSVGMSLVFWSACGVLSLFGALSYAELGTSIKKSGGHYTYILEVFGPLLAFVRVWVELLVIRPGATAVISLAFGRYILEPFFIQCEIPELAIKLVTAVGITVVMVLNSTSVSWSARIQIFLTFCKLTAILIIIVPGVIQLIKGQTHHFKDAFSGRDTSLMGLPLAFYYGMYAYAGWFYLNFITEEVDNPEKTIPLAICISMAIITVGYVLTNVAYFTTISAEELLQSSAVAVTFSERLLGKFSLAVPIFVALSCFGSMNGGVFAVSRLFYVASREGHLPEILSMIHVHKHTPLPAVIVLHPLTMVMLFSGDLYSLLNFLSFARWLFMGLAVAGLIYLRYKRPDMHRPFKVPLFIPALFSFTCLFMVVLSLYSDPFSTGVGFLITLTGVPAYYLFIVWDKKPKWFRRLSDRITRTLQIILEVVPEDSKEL
T1 sequence (P10852 1-526 partner): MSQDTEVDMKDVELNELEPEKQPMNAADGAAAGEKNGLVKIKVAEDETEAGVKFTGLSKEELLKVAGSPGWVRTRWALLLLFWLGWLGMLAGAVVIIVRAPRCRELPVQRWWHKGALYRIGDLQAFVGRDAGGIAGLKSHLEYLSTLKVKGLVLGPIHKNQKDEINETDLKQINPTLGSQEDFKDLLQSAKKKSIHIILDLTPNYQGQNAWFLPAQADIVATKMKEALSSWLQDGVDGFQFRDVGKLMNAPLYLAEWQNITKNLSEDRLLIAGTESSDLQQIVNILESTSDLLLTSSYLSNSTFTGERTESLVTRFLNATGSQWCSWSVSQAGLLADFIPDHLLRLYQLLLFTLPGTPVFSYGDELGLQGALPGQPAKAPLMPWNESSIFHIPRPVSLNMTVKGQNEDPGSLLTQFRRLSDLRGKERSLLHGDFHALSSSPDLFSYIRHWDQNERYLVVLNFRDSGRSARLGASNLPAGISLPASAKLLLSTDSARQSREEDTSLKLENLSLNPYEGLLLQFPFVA
As to the kind of experiment: inhibition of L-[…]cystine uptake in xCT-overexpressing MEF. Type of assay: cell-based.

Assay [2] deals with T1, xCT (SLC7A11), system xc−. The description is as above. The class given is cell-based. This is another data set of the same source.

These results are taken from paper PMC5772355 (Scientific Reports, 2018).

Broadly, the IC50 is the concentration at which inhibition is half-maximal. A higher IC50 goes with lower potency. The term inhibition denotes the share of the control response that was lost under treatment. High values mean a response far below the control, low ones a response near the control.

Compound `O=C(O)c1cc(/N=N/c2ccc(S(=O)(=O)Nc3ccccn3)cc2)ccc1O` [SAS, sulfasalazine] had a half-inhibitory concentration (IC50) in assay [1] of 26.1 µM.
`CCOc1ccccc1-n1c(C(C)N2CCN(C(=O)COc3ccc(Cl)cc3)CC2)nc2ccccc2c1=O` (stereo not shown) [erastin] registered a half-maximal inhibitory concentration (IC50) in assay [1] of 1.4 µM.
On to `N[C@@H](CCC(=O)O)C(=O)O` [Glu, L-glutamate], for which the inhibition at 100 µM in assay [2] is about 50%.
On to `N[C@@H](Cn1oc(=O)[nH]c1=O)C(=O)O` [QA, quisqualic acid], for which, in assay [1], the half-maximal inhibitory concentration (IC50) stood at 15.4 µM.
